The values that follow are results of earlier work, collected in patent publication US20100192311A1, “METHOD FOR PERFUMING FABRICS” (priority 2009, published 2010).

Structures are written as SMILES. Where a name gives a salt, the structure may show the parent alone.

For the first data set, the system named is typical Gram negative and positive bacteria, fungi and yeasts. The settings on record: level from about 0.001% to about 0.5% by weight of the usage composition.
With `Cn1sc2c(c1=O)CCC2` [Promexal, 2-methyl-4,5-trimethylene-4-isothiazolin-3-one], the “effective against typical Gram negative and positive bacteria, fungi and yeasts” value is “effective”.
Regarding `O=c1[nH]sc2ccccc12` [Proxel, 1,2-benzisothiazolin-3-one], the “effective against typical Gram negative and positive bacteria, fungi and yeasts” value was “effective”.

Test system in the next data set: not given
The settings on record: in water.
In the case of `O=[N+]([O-])C1(Br)COCOC1` [Bronidox L, 5-bromo-5-nitro-1,3-dioxane], the water solubility result is “about 0.46%”.
`CC(C)(O)C(Cl)(Cl)Cl` [chlorobutanol, 1,1,1-Trichloro-2-methylpropan-2-ol]: the water solubility result is recorded as “about 0.8%”.
Take `[H]/N=C(\N/C(=N/[H])NCCCCCCNC(=N)NC(=N)Nc1ccc(Cl)cc1)Nc1ccc(Cl)cc1` [chlorhexidine diacetate salt, 1,1′-hexamethylene bis(5-(p-chlorophenyl)biguanide), reference compound]: the water solubility result is reported as “about 1.8%”.
Turning to `OCCc1ccccc1` [Phenyl Ethyl Alcohol, 2-phenylethanol], the water solubility entry is reported as “about 2%”.
With `[Na+].[O-][n+]1ccccc1[S-]` [sodium pyrithione], the water solubility entry is “about 50%”.
Turning to `[H]/N=C(\N/C(=N/[H])NCCCCCCNC(=N)NC(=N)Nc1ccc(Cl)cc1)Nc1ccc(Cl)cc1` [chlorhexidine digluconate salt, 1,1′-hexamethylene bis(5-(p-chlorophenyl)biguanide), reference compound], the water solubility result was “about 70%”.
On to `OCc1ccccc1` [benzyl alcohol], for which the water solubility result is “about 4%”.
Turning to `OCCOc1ccccc1` [2-phenoxyethanol], the water solubility entry is listed as “about 2.67%”.
For the molecule `CC1(C)C(=O)N(CO)C(=O)N1CO` [DMDM hydantoin, 1,3-bis(hydroxymethyl)-5,5-dimethyl-2,4-imidazolidinedione], the water solubility result was “more than 50%”.
